From PubChem BioAssay (NCI)
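Interpolation was linear, between the two tested concentrations surrounding the appropriate level; five concentrations were tested over 48 hours in 96-well plates. Definition used: TGI = concentration required for complete inhibition of growth.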

How the values were obtained:
Assay in all cases: DTP human tumour cell line panel, 48 h
786-0 renal = system: 786-0 renal
MOLT-4 leukemia = system: MOLT-4 leukemia
KM12 colon = system: KM12 colon
NCI-H23 lung = system: NCI-H23 lung
HT29 colon = system: HT29 colon
SF-268 CNS = system: SF-268 CNS
UO-31 renal = system: UO-31 renal
IGROV1 ovarian = system: IGROV1 ovarian
DMS 114 small cell lung = system: DMS 114 small cell lung
SK-MEL-28 melanoma = system: SK-MEL-28 melanoma
ACHN renal = system: ACHN renal
OVCAR-5 ovarian = system: OVCAR-5 ovarian
UACC-257 melanoma = system: UACC-257 melanoma
SW-620 colon = system: SW-620 colon
XF 498 CNS = system: XF 498 CNS
SK-OV-3 ovarian = system: SK-OV-3 ovarian
RPMI-8226 leukemia = system: RPMI-8226 leukemia
HOP-62 NSCLC = system: HOP-62 NSCLC
SF-295 CNS = system: SF-295 CNS
UACC-62 melanoma = system: UACC-62 melanoma
SR leukemia = system: SR leukemia
LOX IMVI melanoma = system: LOX IMVI melanoma
M14 melanoma = system: M14 melanoma
TK-10 renal = system: TK-10 renal
K-562 leukemia = system: K-562 leukemia
A549 NSCLC = system: A549 NSCLC
DLD-1 colon = system: DLD-1 colon
EKVX NSCLC = system: EKVX NSCLC
SNB-19 CNS = system: SNB-19 CNS
OVCAR-3 ovarian = system: OVCAR-3 ovarian
HOP-18 NSCLC = system: HOP-18 NSCLC
CCRF-CEM leukemia = system: CCRF-CEM leukemia
HL-60(TB) leukemia = system: HL-60(TB) leukemia
A498 renal = system: A498 renal
LXFL 529 NSCLC = system: LXFL 529 NSCLC
HCC-2998 colon = system: HCC-2998 colon
SNB-78 CNS = system: SNB-78 CNS
OVCAR-8 ovarian = system: OVCAR-8 ovarian
SNB-75 CNS = system: SNB-75 CNS
KM20L2 colon = system: KM20L2 colon
SN12C renal = system: SN12C renal
MALME-3M melanoma = system: MALME-3M melanoma
HCT-116 colon = system: HCT-116 colon
OVCAR-4 ovarian = system: OVCAR-4 ovarian
U251 CNS = system: U251 CNS
NCI-H226 lung = system: NCI-H226 lung
SF-539 CNS = system: SF-539 CNS
RXF 393 renal = system: RXF 393 renal
NCI-H460 lung = system: NCI-H460 lung
COLO 205 colon = system: COLO 205 colon
CAKI-1 renal = system: CAKI-1 renal
HOP-92 NSCLC = system: HOP-92 NSCLC
M19-MEL melanoma = system: M19-MEL melanoma
NCI-H522 lung = system: NCI-H522 lung
SK-MEL-5 melanoma = system: SK-MEL-5 melanoma
SK-MEL-2 melanoma = system: SK-MEL-2 melanoma

## Cc1[nH]c2ccccc2c1C1Cc2ccccc2N1C(=O)C#Cc1ccc([N+](=O)[O-])cc1 (configuration not stated)
786-0 renal
  TGI: > 100 µM
MOLT-4 leukemia
  TGI: > 100 µM
KM12 colon
  TGI: > 100 µM
NCI-H23 lung
  TGI: > 100 µM
HT29 colon
  TGI: > 100 µM
SF-268 CNS
  TGI: > 100 µM
UO-31 renal
  TGI: > 100 µM
IGROV1 ovarian
  TGI: > 100 µM
DMS 114 small cell lung
  TGI: > 100 µM
SK-MEL-28 melanoma
  TGI: > 100 µM
ACHN renal
  TGI: > 100 µM
OVCAR-5 ovarian
  TGI: > 100 µM
UACC-257 melanoma
  TGI: > 100 µM
SW-620 colon
  TGI: > 100 µM
XF 498 CNS
  TGI: > 100 µM
SK-OV-3 ovarian
  TGI: > 100 µM
RPMI-8226 leukemia
  TGI: > 100 µM
HOP-62 NSCLC
  TGI: > 100 µM
SF-295 CNS
  TGI: > 100 µM
UACC-62 melanoma
  TGI: > 100 µM
SR leukemia
  TGI: > 100 µM
LOX IMVI melanoma
  TGI: > 100 µM
M14 melanoma
  TGI: > 100 µM
TK-10 renal
  TGI: > 100 µM
K-562 leukemia
  TGI: > 100 µM
A549 NSCLC
  TGI: > 100 µM
DLD-1 colon
  TGI: > 100 µM
EKVX NSCLC
  TGI: > 100 µM
SNB-19 CNS
  TGI: > 100 µM
OVCAR-3 ovarian
  TGI: > 100 µM
HOP-18 NSCLC
  TGI: > 100 µM
CCRF-CEM leukemia
  TGI: > 100 µM
HL-60(TB) leukemia
  TGI: > 100 µM
A498 renal
  TGI: > 100 µM
LXFL 529 NSCLC
  TGI: > 100 µM
HCC-2998 colon
  TGI: > 100 µM
SNB-78 CNS
  TGI: > 100 µM
OVCAR-8 ovarian
  TGI: > 100 µM
SNB-75 CNS
  TGI: > 100 µM
KM20L2 colon
  TGI: > 100 µM
SN12C renal
  TGI: > 100 µM
MALME-3M melanoma
  TGI: > 100 µM
HCT-116 colon
  TGI: > 100 µM
OVCAR-4 ovarian
  TGI: > 100 µM
U251 CNS
  TGI: > 100 µM
NCI-H226 lung
  TGI: > 100 µM
SF-539 CNS
  TGI: > 100 µM
RXF 393 renal
  TGI: > 100 µM
NCI-H460 lung
  TGI: > 100 µM

## O=C(Cc1nc2c3c(ccc2[nH]c1=O)C(=O)c1ccccc1C3=O)C(=O)Nc1ccccc1[N+](=O)[O-]
786-0 renal
  TGI: 34.4 µM
MOLT-4 leukemia
  TGI: 23.2 µM
KM12 colon
  TGI: 43 µM
COLO 205 colon
  TGI: 33.5 µM
NCI-H23 lung
  TGI: 35.4 µM
HT29 colon
  TGI: 41.7 µM
SF-268 CNS
  TGI: 31.5 µM
UO-31 renal
  TGI: > 100 µM
IGROV1 ovarian
  TGI: 65.4 µM
SK-MEL-28 melanoma
  TGI: 30.3 µM
ACHN renal
  TGI: 33.9 µM
CAKI-1 renal
  TGI: 62.9 µM
OVCAR-5 ovarian
  TGI: 41.1 µM
UACC-257 melanoma
  TGI: 37 µM
SW-620 colon
  TGI: 28.6 µM
HOP-92 NSCLC
  TGI: 38.5 µM
XF 498 CNS
  TGI: 43.1 µM
SK-OV-3 ovarian
  TGI: > 100 µM
RPMI-8226 leukemia
  TGI: 41.1 µM
HOP-62 NSCLC
  TGI: 39.2 µM
M19-MEL melanoma
  TGI: 79.5 µM
UACC-62 melanoma
  TGI: 59 µM
SR leukemia
  TGI: 51.1 µM
LOX IMVI melanoma
  TGI: 44.8 µM
NCI-H522 lung
  TGI: 18 µM
M14 melanoma
  TGI: 34 µM
TK-10 renal
  TGI: 44.8 µM
K-562 leukemia
  TGI: 37 µM
A549 NSCLC
  TGI: > 100 µM
EKVX NSCLC
  TGI: 36.7 µM
SNB-19 CNS
  TGI: 32.9 µM
OVCAR-3 ovarian
  TGI: 25.6 µM
CCRF-CEM leukemia
  TGI: 11.6 µM
HL-60(TB) leukemia
  TGI: 43.7 µM
LXFL 529 NSCLC
  TGI: 18 µM
HCC-2998 colon
  TGI: 36.8 µM
SNB-78 CNS
  TGI: 16.5 µM
OVCAR-8 ovarian
  TGI: 39.6 µM
SK-MEL-5 melanoma
  TGI: 37.3 µM
KM20L2 colon
  TGI: 39.6 µM
MALME-3M melanoma
  TGI: 36.6 µM
HCT-116 colon
  TGI: 65.4 µM
SK-MEL-2 melanoma
  TGI: 45.4 µM
OVCAR-4 ovarian
  TGI: 32.4 µM
U251 CNS
  TGI: 32 µM
NCI-H226 lung
  TGI: 40.5 µM
SF-539 CNS
  TGI: 34.6 µM
NCI-H460 lung
  TGI: 97.6 µM
